Experimental data: publication PMC4440444 (Theranostics, 2015)
Read-outs that look alike come from different tables or passages of the source.

System: glioma
Format: in vivo, human
Settings: for T/NTmax (maximum target to non-target ratio): brain PET/CT; for SUVmax in glioma: brain PET/CT before surgery

For ^18F-FDG, the “T/NTmax in glioma, mean ± SD” value (eight glioma patients) was 0.86 ± 0.41, the “SUVmax in glioma tissues, range” value (eight glioma patients, range) was 3.50-12.27 and the “T/NTmax in glioma, range” value (eight glioma patients, range) was 0.35-1.59. The “T/NTmax (maximum target to non-target ratio)” value (patient No. 1, WHO grade II) was 0.72, the SUVmax in glioma (patient No. 1, WHO grade II) was 7.40 and the “T/NTmax (maximum target to non-target ratio)” value (patient No. 2, WHO grade II) was 0.35. For the same substance, the SUVmax in glioma (patient No. 2, WHO grade II) was 3.50, the “T/NTmax (maximum target to non-target ratio)” value (patient No. 3, WHO grade III) was 0.61 and the SUVmax in glioma (patient No. 3, WHO grade III) was 7.27. For the same substance, the “T/NTmax (maximum target to non-target ratio)” value (patient No. 4, WHO grade IV) was 0.80, the SUVmax in glioma (patient No. 4, WHO grade IV) was 12.27 and the “T/NTmax (maximum target to non-target ratio)” value (patient No. 5, WHO grade IV) was 0.72. The SUVmax in glioma (patient No. 5, WHO grade IV) was 5.76, the “T/NTmax (maximum target to non-target ratio)” value (patient No. 6, WHO grade IV) was 0.78 and the SUVmax in glioma (patient No. 6, WHO grade IV) was 9.87. For the same substance, the SUVmax in glioma (patient No. 7, WHO grade IV) was 8.47, the “T/NTmax (maximum target to non-target ratio)” value (patient No. 8, WHO grade IV) was 1.59 and the SUVmax in glioma (patient No. 8, WHO grade IV) was 4.20.
